Assay results published in patent US9174968B2, “Pyrimidinone compounds for use in the treatment of diseases or conditions mediated by LP-PLA2” (GLAXO GROUP LIMITED, priority 2010, dated 2015).
Structures can show the parent of a compound that is named as a salt.

Target: T1, Lp-PLA2 from plasma (pooled human plasma) (Homo sapiens, UniProt Q13093)
T1 construct: from tissue; host or cells: pooled human plasma
T1 sequence (Q13093 22-441): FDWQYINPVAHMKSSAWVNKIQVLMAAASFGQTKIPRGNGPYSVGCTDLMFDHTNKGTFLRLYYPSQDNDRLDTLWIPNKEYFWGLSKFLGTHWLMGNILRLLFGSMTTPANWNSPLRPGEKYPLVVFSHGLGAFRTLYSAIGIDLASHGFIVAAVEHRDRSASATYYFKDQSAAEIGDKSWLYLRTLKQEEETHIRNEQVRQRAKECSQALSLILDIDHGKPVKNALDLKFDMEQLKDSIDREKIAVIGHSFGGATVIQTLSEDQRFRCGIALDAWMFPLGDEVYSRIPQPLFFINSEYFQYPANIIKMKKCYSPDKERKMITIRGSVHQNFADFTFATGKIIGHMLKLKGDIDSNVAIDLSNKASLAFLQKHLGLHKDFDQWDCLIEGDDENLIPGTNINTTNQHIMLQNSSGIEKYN
Assay: Lp-PLA2 human plasma assay (Thio-PAF assay)
Format: biochemical
Conditions: read-out: pIC50 in the thio-PAF assay (converted)
Text: (3) Lipoprotein-Associated Phospholipase A2 (Lp-PLA2) Human Plasma Assay (Also Referred to as “Thio-PAF Assay”)
The human plasma assay utilizes a thioester analog of PAF (phosphatidylcholine), where hydrolysis yields to the formation of a phospholipid containing a free thiol group. The amount of thiol is quantitated continuously by reacting with CPM (7-diethylamino-3-(4′-maleimidylphenyl)-4-methylcoumarin), a maleimide which increases in fluorescence after Michael addition of thiols. This assay may detect the activity of Lp-PLA2 from plasma, as determined by specific inhibition by Lp-PLA2 inhibitors.
The thio-PAF assay was run as a quenched 15 μL assay. Compounds source plate was prepared by making 1:3 (by volume) serial dilution of the compounds into pure DMSO on 384-well microplate. 0.01 μL of compounds on compound source plate were transferred to 384 well Greiner 784076 (black) low-volume plates by ECHO liquid dispenser. 8 μL pooled human plasma, which was previously aliquoted and frozen, was added. Plates were centrifuged for 10 sec at 500 rpm. After 30 minutes preincubation, 2 μL of substrate (2.5 mM thio-PAF, 3.2 mM NEM (N-ethylmaleimide) [made fresh daily in DMSO], and 32 μM CPM [from a DMSO stock] in assay buffer of 50 mM HEPES, pH7.4, 150 mM NaCl, 1 mM CHAPS was added to 384 well Greiner 784076 (black) low-volume plates by BRAVO liquid handling station. Plates were centrifuged for 10 sec at 500 rpm. Plate was covered to protect from light and incubated for 2 min at room temperature. Reaction was quenched with 5 μL of 5% aqueous trifluoroacetic acid (TFA). Plates were covered to protect from light and incubated for 40 min at room temperature. Plates were read at ex: 380/em: 485 using-Envision microplate reader. PIC50 data, curve and QC analysis was conducted by using XLFit module in Excel.
All exemplified compounds of the present invention were tested in thio-PAF assay or similar assay as described above.

Row | IC50 | SMILES
1 | > 10 µM | CCc1c[nH]c(OCCc2ccc(Oc3ccc(C(F)(F)F)nc3)cc2)nc1=O [E140, 5-ethyl-2-{[2-(4-{[6-(trifluoromethyl)-3-pyridinyl]oxy}phenyl)ethyl]oxy}-4(1H)-pyrimidinone]
2 | > 10 µM | CCc1c[nH]c(OCCc2ccc(Oc3cccc(C)n3)cc2)nc1=O [E160, 5-ethyl-2-[(2-{4-[(6-methyl-2-pyridinyl)oxy]phenyl}ethyl)oxy]-4(1H)-pyrimidinone]
3 | > 10 µM | CCc1c[nH]c(OCCc2ccc(Oc3cc(Cl)cc(C(F)(F)F)c3)cc2)nc1=O [E163, 2-{[2-(4-{[3-chloro-5-(trifluoromethyl)phenyl]oxy}phenyl)ethyl]oxy}-5-ethyl-4(1H)-pyrimidinone]
4 | > 10 µM | CCc1c[nH]c(OCCc2cc(F)c(Oc3cnc(C(F)(F)F)nc3)c(F)c2)nc1=O [E170, 2-(3,5-difluoro-4-((2-(trifluoromethyl)pyrimidin-5-yl)oxy)phenethoxy)-5-ethylpyrimidin-4(1H)-one]
5 | > 10 µM | CCc1c[nH]c(OCCc2ccc(Oc3ccc(Cl)c(C(F)(F)F)c3)c(F)c2)nc1=O [E173, 2-{[2-(4-{[4-chloro-3-(trifluoromethyl)phenyl]oxy}-3-fluorophenyl)ethyl]oxy}-5-ethyl-4(1H)-pyrimidinone]
6 | > 10 µM | CCc1c[nH]c(OCCc2ccc(Oc3ccc(Cl)c(OC(F)(F)F)c3)cc2)nc1=O [E179]
7 | > 10 µM | CCc1c[nH]c(OCCc2ccc(Oc3ccc(Cl)c(C)c3)cc2)nc1=O [E183, 2-[(2-{4-[(4-chloro-3-methylphenyl)oxy]phenyl}ethyl)oxy]-5-ethyl-4(1H)-pyrimidinone]
8 | > 10 µM | Cc1c[nH]c(NCCc2ccc(Oc3ccc(Cl)c(C(F)(F)F)c3)cc2)nc1=O [E198, 2-{2-[4-(4-Chloro-3-trifluoromethyl-phenoxy)-phenyl]-ethylamino}-5-methyl-1H-pyrimidin-4-one]
9 | > 10 µM | O=c1nc(NCCc2ccc(Oc3ccc(Cl)c(C(F)(F)F)c3)cc2)[nH]cc1CN1CCCC1 [E215, 2-{2-[4-(4-chloro-3-trifluoromethyl-phenoxy)-phenyl]-ethylamino}-5-pyrrolidin-1-ylmethyl-1H-pyrimidin-4-one]

Further lines, the molecule ahead of its results:

Row | SMILES | IC50
10 | CCc1cn(C)c(OCCc2ccc(Oc3ccc(C(F)(F)F)nc3)cc2)nc1=O [E142, 5-ethyl-1-methyl-2-{[2-(4-{[6-(trifluoromethyl)-3-pyridinyl]oxy}phenyl)ethyl]oxy}-4(1H)-pyrimidinone] | > 10 µM
11 | CCc1cn(C)c(OCCc2ccc(Oc3cnc(C(F)(F)F)nc3)cc2)nc1=O [E144, 5-ethyl-1-methyl-2-(4-((2-(trifluoromethyl)pyrimidin-5-yl)oxy)phenethoxy)pyrimidin-4(1H)-one, trifluoroacetic acid salt] | > 10 µM
12 | COc1ncc(Cc2c[nH]c(OCCc3ccc(Oc4ncc(Cl)cn4)cc3)nc2=O)cn1 [E145, 2-(4-((5-chloropyrimidin-2-yl)oxy)phenethoxy)-5-((2-methoxypyrimidin-5-yl)methyl)pyrimidin-4(1H)-one, Trifluoroacetic acid salt] | > 10 µM
13 | Cc1cccc(Oc2ccc(CCOc3nc(=O)c(Cc4cnn(C)c4)c[nH]3)cc2)n1 [E158, 5-[(1-methyl-1H-pyrazol-4-yl)methyl]-2-[(2-{4-[(6-methyl-2-pyridinyl)oxy]phenyl}ethyl)oxy]-4(1H)-pyrimidinone] | > 10 µM
14 | CCc1cn(C)c(OCCc2cc(F)c(Oc3cnc(C(F)(F)F)nc3)c(F)c2)nc1=O [E171, 2-(3,5-difluoro-4-((2-(trifluoromethyl)pyrimidin-5-yl)oxy)phenethoxy)-5-ethyl-1-methylpyrimidin-4(1H)-one] | > 10 µM
15 | CCc1cn(C)c(OCCc2ccc(Oc3ccc(Cl)c(C)c3)cc2)nc1=O [E184, 2-[(2-{4-[(4-chloro-3-methylphenyl)oxy]phenyl}ethyl)oxy]-5-ethyl-1-methyl-4(1H)-pyrimidinone] | > 10 µM
16 | CN(CCc1ccc(Oc2ccc(F)cc2)cc1)c1nc(=O)c(Cc2cncnc2)c[nH]1 [E192, 2-{2-[4-(4-fluoro-phenoxy)phenyl]-ethyl-methyl-amino}-5-pyrimidin-5-ylmethyl-1H-pyrimidin-4-one] | > 10 µM
